US7943600B2, “Antimicrobial combination therapy” (priority 2004, dated 2011)

Legend:
Type in all cases: cell-based, E. coli
GM7330 fpg::amp = test: Survival curves after cisplatin treatment; settings: presence or absence of ampicillin in growth medium
Experimental: (§1) MacConkey agar and LB broth were purchased from Difco. LB broth contained 10 g tryptone, 5 g yeast extract, and 10 g NaCl per 1 L. All antibiotics and cisplatin (cis-diammine-dichloro-platinum(II), or CDDP) were purchased from Sigma-Aldrich. Antibiotics were used at the following final concentrations: 15 μg/ml tetracycline (Tc), 100 μg/ml ampicillin, 50 μg/ml kanamycin, 100 μg/ml streptomycin, 30 μg/ml nalidixic acid and 20 μg/ml chloramphenicol. Cisplatin solutions were prepared by dissolution in phosphate buffered saline (PBS) at 37° C. for one hour with rotation, filtering the solution through a 0.2 μm Acrodisc filter, and determining the concentration by UV absorbance at A301 using a Beckmann DU-65 spectrophotometer. Appropriate doses of cisplatin were then prepared by dilution in PBS.
(§2) Cells were grown overnight from single colonies in LB broth. The next morning, saturated overnight cultures were diluted 1:100 and grown for two hours to mid-log phase (cell density approximately 3×10^8 cells/ml). At this time, the cells were spun down, resuspended in M9 minimal salts, and treated with various concentrations of cisplatin at 37° C. for 1 hour. Exposure to cisplatin was stopped by dilution of the cells 1:100 in M9 salts. Appropriate serial dilutions were prepared for each dose and plated on LB plates or LB/Tet plates. Colonies were counted the next day after incubation at 37° C. Survival was calculated as a percentage of cells forming colonies in treated populations relative to untreated.

MG1655/F′Tn10 = test: Survival curves (colony formation) after cisplatin treatment
Experimental: Strain GM4292 was constructed by mating exponentially growing XL1-Blue (Stratagene) with MG1655 (both at 1-2×10^8/ml at a 1:1 ratio) for 60 min and plating dilutions of the mixture on MacConkey agar-tetracycline plates. A red tetracycline-resistant, nalidixic acid-sensitive colony was selected, purified and designated GM4292. Strain GM4293 was constructed by introducing F′42 (F′lac^+) from AB 1874 into KM81 by conjugation as described above and selecting for Lac^+ Str^R colonies. A purified Lac^+ Str^R recombinant overnight culture was diluted and plated on MacConkey agar-kanamycin and following incubation overnight at 37° C., white colonies were selected. White colonies can arise either by gene conversion, where the lac^+ allele on the F′42 plasmid is converted to lacZ::Kan, or by loss of the F′lac^+. The white colonies were tested for their ability to transfer kanamycin-resistance at high frequency to MG1655, indicating retention of the F′ plasmid. One of these MG1655 recipients was designated GM4293.
as §1
as §2, with “At this time, the cells were spun down, resuspended in M9 minimal salts, and treated with various concentrations of cisplatin at 37° C. for 1 hour.” left out

AB1157 mutS::tet = test: Survival curves after cisplatin treatment
Experimental: as §1, §2

CC104 mutY::tet = test: Survival curves after cisplatin treatment
Experimental: as §1, §2

GM7330 fpg::tet = test: Survival curves after cisplatin treatment
Experimental: as §1, §2

AB1157/pBR322 = test: Survival curves after cisplatin treatment; settings: grown with tetracycline prior to cisplatin treatment
Experimental: (§3) Strains carrying the pBR322 plasmid were created using a standard transformation by electroporation protocol. Briefly, cells were grown to mid-log phase, spun down, and washed 3 times in ice-cold sterile water. Cells were then resuspended in the final volume of 100 μl of ice-cold sterile water, and 10 μg pBR322 (New England BioLabs) was added. The BTX electroporation system, ElectroCell Manipulator 600, was used to deliver the pulse. After the pulse, cells were immediately resuspended in 1 ml of LB broth. Appropriate dilutions of cells were prepared in M9 minimal salts, plated on LB-ampicillin plates, and allowed to form colonies overnight.
as §1, §2

CC104/pBR322 = test: Survival curves after cisplatin treatment; settings: grown with tetracycline prior to cisplatin treatment
Experimental: as §3, §1, §2

MG1655/pBR322 = test: Survival curves after cisplatin treatment
Experimental: as §3, §1, §2

CC104 mutY::cam = test: Survival curves after cisplatin treatment; settings: presence or absence of chloramphenicol in growth medium
Experimental: as §1, §2

[1] = grown without tetracycline, treated with cisplatin alone
[2] = grown without tetracycline, treated with cisplatin in the presence of tetracycline
[3] = pre-treated and co-treated with tetracycline vs pre-treated only, cisplatin
[4] = tetracycline absent from growth medium

SMILES: CC1(C)S[C@@H]2[C@H](NC(=O)[C@H](N)c3ccccc3)C(=O)N2[C@H]1C(=O)O [ampicillin]
- effect of antibiotic in growth medium on survival upon cisplatin treatment (GM7330 fpg::amp): did not produce the same degree of sensitization to cisplatin

SMILES: N.N.[Cl][Pt][Cl] [cisplatin, cis-diammine-dichloro-platinum(II)]
- sensitivity to cisplatin (MG1655/F′Tn10; 4 hours, 10-fold lower cisplatin doses, co-treated with tetracycline only): more sensitive to cisplatin than wild-type
- survival (MG1655/F′Tn10; 4 hours, 10-fold lower cisplatin doses, neither pre-treated nor co-treated with tetracycline): not different from survival of wild-type cells
- sensitivity to cisplatin (MG1655/F′Tn10; 4 hours, 10-fold lower cisplatin doses, pre-treated with tetracycline and co-treated with cisplatin and tetracycline): the most sensitive to cisplatin treatment
- sensitivity to cisplatin (MG1655/F′Tn10; 4 hours, 10-fold lower cisplatin doses, pre-treated with tetracycline only): more sensitive to cisplatin than wild-type
- sensitivity to cisplatin (MG1655/F′Tn10; [1]): equally sensitive to cisplatin as MG1655 cells not carrying any tet genes
- survival (MG1655/F′Tn10; [2]): their survival decreased
- survival upon exposure to cisplatin (MG1655/F′Tn10; grown without tetracycline, cisplatin 1 hour): not different from that of MG1655 wild-type cells
- additional decrease in survival (MG1655/F′Tn10; [3]): 100 fold
- survival upon subsequent treatment with cisplatin (MG1655/F′Tn10; tetracycline 15 μg/ml in growth medium of overnight and log phase cultures, cisplatin 1 hour): dramatic decrease in survival
- killed more effectively than wild-type bacteria (MG1655/F′Tn10; tetracycline-resistant bacteria grown in tetracycline, then cisplatin in the presence of tetracycline, vs wild-type or resistant bacteria not exposed to tetracycline): about 10^5 fold
- survival upon treatment with cisplatin (AB1157 mutS::tet; grown with tetracycline): dramatically decreased
- survival upon treatment with cisplatin (AB1157 mutS::tet; [4]): not different from respective wild-types
- survival upon treatment with cisplatin (CC104 mutY::tet; grown with tetracycline): dramatically decreased
- survival upon treatment with cisplatin (CC104 mutY::tet; [4]): not different from respective wild-types
- survival upon treatment with cisplatin (GM7330 fpg::tet; grown with tetracycline): dramatically decreased
- survival upon treatment with cisplatin (GM7330 fpg::tet; [4]): not different from respective wild-types
- sensitization to cisplatin (AB1157/pBR322): did not produce similar sensitization to cisplatin
- sensitization to cisplatin (CC104/pBR322): did not produce similar sensitization to cisplatin
- sensitization to cisplatin (MG1655/pBR322; grown with tetracycline prior to cisplatin treatment): did not produce similar sensitization to cisplatin
- sensitivity to cisplatin (MG1655/pBR322; [1]): equally sensitive to cisplatin as MG1655 cells not carrying any tet genes
- survival (MG1655/pBR322; [2]): their survival decreased
- additional decrease in survival (MG1655/pBR322; [3]): 100 fold

SMILES: O=C(N[C@H](CO)[C@H](O)c1ccc([N+](=O)[O-])cc1)C(Cl)Cl [chloramphenicol]
- effect of antibiotic in growth medium on survival upon cisplatin treatment (CC104 mutY::cam): did not produce the same degree of sensitization to cisplatin
